Converted amounts (≈) assume the structure as drawn. Some results are limits rather than exact numbers.

One may read the MIC as the least concentration at which growth counts as inhibited. In general, IC50 refers to the concentration needed to halve the response being measured. For orientation: remaining activity means the share of the control activity or signal that is left under treatment.

In one assay the test system is S. aureus ATCC 29213. Nature of the assay: MIC by broth microdilution (CLSI), quality control strain S. aureus ATCC 29213. It counts as cell-based, Staphylococcus aureus. As to conditions: multiple values when multiple MIC assays were conducted; for MIC: Staphylococcus aureus, ATCC29213, S. aureus ATCC 29213; for MIC 29213: S. aureus ATCC 29213. (Broth dilution looks for growth in wells or tubes with falling amounts of substance.)

The next assay deals with USA 300 strain of MRSA. Nature of the assay: MIC by broth microdilution, USA 300 strain of MRSA. It counts as cell-based, Staphylococcus aureus. The note with it: Staphylococcus aureus, multiple values when multiple MIC assays were conducted, read-out: MIC USA300. On the procedure:
Minimum inhibitory concentrations were determined using the quality control strain S. aureus ATCC 29213 (Table 1) by the broth microdilution method according to guidelines of the Clinical and Laboratory Standards Institute (CLSI) (Cockerill, F. R.; et al., 2012, Methods for dilution antimicrobial susceptibility tests for bacteria that grow aerobically; approved standard-ninth edition. MA07-A9. Clinical and Laboratory Standard Institute, Wayne, Pa.). […] MICs for selected compounds were also determined using a USA 300 strain of MRSA (Hidron, et al., Lancet Infect. Dis. 2009, 9:384-392). Vancomycin was used as an additional control.

The target in assay [1] is T1, Staphylococcus aureus gyrase (Staphylococcus aureus, UniProt P0A0K8+P20831).
T1 construct: purchased Inspiralis, Norwich, UK
T1 sequence (P20831 whole entry): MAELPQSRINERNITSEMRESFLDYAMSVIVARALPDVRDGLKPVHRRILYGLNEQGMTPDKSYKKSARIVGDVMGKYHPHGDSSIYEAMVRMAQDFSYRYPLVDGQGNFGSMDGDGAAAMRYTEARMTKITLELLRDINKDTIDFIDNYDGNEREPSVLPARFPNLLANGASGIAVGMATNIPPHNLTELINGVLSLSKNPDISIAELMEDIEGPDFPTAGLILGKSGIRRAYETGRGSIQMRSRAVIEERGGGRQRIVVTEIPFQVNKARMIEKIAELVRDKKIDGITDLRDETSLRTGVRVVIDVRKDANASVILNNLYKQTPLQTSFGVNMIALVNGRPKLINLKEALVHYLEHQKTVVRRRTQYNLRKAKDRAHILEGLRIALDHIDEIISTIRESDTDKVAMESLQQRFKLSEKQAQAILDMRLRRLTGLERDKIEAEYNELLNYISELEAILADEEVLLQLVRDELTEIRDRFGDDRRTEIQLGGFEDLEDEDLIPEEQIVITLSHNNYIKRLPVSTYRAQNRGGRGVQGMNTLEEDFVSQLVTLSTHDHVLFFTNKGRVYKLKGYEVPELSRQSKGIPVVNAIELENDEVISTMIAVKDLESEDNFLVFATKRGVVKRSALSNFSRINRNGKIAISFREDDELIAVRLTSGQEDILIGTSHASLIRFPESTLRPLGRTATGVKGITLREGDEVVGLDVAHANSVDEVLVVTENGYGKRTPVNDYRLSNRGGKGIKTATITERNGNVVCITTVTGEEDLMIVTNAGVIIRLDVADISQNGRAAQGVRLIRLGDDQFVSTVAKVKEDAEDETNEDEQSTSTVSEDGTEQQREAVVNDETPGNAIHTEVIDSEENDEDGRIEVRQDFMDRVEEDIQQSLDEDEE
T1 sequence (P0A0K8 whole entry): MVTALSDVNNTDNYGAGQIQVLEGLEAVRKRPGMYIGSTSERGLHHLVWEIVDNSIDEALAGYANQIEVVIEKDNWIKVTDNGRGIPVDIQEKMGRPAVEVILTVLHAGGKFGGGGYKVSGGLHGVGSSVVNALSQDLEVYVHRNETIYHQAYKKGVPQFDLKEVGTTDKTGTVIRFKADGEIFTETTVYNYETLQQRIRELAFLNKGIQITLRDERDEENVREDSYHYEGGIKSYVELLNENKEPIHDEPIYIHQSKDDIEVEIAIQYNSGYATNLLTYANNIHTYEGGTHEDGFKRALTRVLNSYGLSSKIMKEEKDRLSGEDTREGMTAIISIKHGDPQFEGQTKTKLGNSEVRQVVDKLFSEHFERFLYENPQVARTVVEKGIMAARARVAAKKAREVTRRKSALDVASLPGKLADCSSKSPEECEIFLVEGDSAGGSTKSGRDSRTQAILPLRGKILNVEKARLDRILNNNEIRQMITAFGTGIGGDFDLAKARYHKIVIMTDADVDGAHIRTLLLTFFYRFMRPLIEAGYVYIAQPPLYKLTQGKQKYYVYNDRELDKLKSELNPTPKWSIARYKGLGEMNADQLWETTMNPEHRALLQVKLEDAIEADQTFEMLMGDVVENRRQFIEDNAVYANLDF
The assay can be described thus: Staphylococcus aureus gyrase supercoiling assay. Format: biochemical. As to conditions: S. aureus DNA gyrase supercoiling; read-out: Gyrase IC50. On the procedure:
(§1) A subset of analogs was used to assess the degree of inhibition of DNA gyrase or TopoIV (Inspiralis, Norwich, UK), both to establish the mechanism of action and to evaluate the relative balance of inhibitory activities (Table 1). A subset of compound was also assayed to determine the degree of inhibition of human topoisomerase II (Inspiralis, Norwich, UK)).
(§2) In all experiments, the activity of the enzymes was determined prior to the testing of the compounds and 1 unit (U) was defined as the amount of enzyme required to just fully supercoil, relax or decatenate the substrate (see explanation of gels). This amount of enzyme was initially used in determination of control inhibitor activity. These experiments were performed in duplicate.
(§3) For all assays the final DMSO concentration was 1%. 10 mM stocks of the compounds were serially diluted into 10% DMSO at 1 mM, 0.5 mM, 0.25 mM, 0.1 mM, 0.05 mM, 0.01 mM, 0.005 mM, 0.001 mM, 0.0005 mM, 0.0001 mM and 0.00005 mM. 3.0 μl of each dilution was added to a 30 μl assay.
(§4) Bands were visualised by ethidium staining for 20 minutes and destaining for 20 minutes. Gels were scanned using documentation equipment (GeneGenius, Syngene, Cambridge, UK) and % inhibition levels (where appropriate) were obtained with gel scanning software. (GeneTools, Syngene, Cambridge, UK)
Staphylococcus aureus gyrase supercoiling
1 U of DNA gyrase was incubated with 0.5 μg of relaxed pBR322 DNA in a 30 μl reaction at 37° C. for 30 minutes under the following conditions: 40 mM HEPES. KOH (pH 7.6), 10 mM magnesium acetate, 10 mM DTT, 2 mM ATP, 500 mM potassium glutamate and 0.05 mg/ml BSA.
Each reaction was stopped by the addition of 30 μl chloroform/iso-amyl alcohol (26:1) and 30 μl Stop Dye (40% sucrose (w/v), 100 mM Tris.HCl (pH 7.5), 10 mM EDTA, 0.5 μg/ml bromophenol blue), before being loaded on a 1.0% TAE gel run at 70V for 2 hours.

For assay [2], the target named is T2, Staphylococcus aureus Topo IV (Staphylococcus aureus, UniProt P0C1S7+P0C1U9).
T2 construct: purchased Inspiralis, Norwich, UK
T2 sequence (P0C1S7 whole entry): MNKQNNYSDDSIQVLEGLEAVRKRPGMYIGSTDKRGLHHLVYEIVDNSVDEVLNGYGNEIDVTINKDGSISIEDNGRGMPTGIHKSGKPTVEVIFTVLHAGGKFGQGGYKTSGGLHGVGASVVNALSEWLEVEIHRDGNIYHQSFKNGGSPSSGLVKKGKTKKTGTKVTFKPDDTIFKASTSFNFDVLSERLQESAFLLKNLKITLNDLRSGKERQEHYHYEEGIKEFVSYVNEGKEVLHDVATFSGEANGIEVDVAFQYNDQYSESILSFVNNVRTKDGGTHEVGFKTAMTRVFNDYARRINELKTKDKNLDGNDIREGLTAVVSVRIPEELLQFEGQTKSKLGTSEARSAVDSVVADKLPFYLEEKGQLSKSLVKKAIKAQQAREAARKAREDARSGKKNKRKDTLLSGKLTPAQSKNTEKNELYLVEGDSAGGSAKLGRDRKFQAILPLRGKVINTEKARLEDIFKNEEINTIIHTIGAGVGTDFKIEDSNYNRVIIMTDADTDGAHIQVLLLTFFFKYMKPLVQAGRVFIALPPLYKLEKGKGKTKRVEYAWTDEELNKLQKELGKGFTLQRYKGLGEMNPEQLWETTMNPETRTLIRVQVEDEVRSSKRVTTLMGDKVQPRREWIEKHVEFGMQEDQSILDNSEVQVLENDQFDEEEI
T2 sequence (P0C1U9 whole entry): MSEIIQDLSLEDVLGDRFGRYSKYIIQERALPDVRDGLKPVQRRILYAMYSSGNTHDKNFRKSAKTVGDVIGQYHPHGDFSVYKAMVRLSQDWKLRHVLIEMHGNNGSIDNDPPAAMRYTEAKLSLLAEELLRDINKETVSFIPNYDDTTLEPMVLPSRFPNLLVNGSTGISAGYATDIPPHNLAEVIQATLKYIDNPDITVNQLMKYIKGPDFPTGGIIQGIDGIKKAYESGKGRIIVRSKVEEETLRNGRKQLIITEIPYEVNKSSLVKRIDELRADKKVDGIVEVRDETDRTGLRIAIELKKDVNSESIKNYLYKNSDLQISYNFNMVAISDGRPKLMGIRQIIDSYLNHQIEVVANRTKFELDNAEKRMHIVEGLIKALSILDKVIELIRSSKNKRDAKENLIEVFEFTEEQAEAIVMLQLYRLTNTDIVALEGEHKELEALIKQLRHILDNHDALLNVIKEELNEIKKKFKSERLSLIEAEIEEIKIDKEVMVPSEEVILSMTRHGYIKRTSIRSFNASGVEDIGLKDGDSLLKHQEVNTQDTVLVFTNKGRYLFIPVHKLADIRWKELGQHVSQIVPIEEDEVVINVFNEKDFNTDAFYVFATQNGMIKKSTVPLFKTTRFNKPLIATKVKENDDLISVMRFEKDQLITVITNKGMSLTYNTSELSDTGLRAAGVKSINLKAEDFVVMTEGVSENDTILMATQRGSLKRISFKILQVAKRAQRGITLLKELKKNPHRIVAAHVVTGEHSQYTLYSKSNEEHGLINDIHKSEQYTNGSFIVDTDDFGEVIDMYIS
Nature of the assay: Staphylococcus aureus Topo IV decatenation assay. Format: biochemical. The note with it: S. aureus Topo IV decatenation; read-out: TopolV Decat IC50. On the procedure:
as §1, §2, §3, §4
Staphylococcus aureus Topo IV Decatenation Assay
1 U of Topo IV was incubated with 200 ng kDNA DNA in a 30 μl reaction at 37° C. for 30 minutes under the following conditions: 50 mM Tris.HCl (7.5), 5 mM MgCl2, 5 mM DTT, 1.5 mM ATP, 350 mM potassium glutamate and 0.05 mg/ml BSA.
Each reaction was stopped by the addition of 30 μl chloroform/iso-amyl alcohol (26:1) and 30 μl Stop Dye, before being loaded on a 1.0% TAE gel run at 70V for 2 hours.

The next assay deals with T3, human topo II (Homo sapiens, UniProt P11388).
T3 construct: purchased Inspiralis, Norwich, UK
T3 sequence (P11388 whole entry): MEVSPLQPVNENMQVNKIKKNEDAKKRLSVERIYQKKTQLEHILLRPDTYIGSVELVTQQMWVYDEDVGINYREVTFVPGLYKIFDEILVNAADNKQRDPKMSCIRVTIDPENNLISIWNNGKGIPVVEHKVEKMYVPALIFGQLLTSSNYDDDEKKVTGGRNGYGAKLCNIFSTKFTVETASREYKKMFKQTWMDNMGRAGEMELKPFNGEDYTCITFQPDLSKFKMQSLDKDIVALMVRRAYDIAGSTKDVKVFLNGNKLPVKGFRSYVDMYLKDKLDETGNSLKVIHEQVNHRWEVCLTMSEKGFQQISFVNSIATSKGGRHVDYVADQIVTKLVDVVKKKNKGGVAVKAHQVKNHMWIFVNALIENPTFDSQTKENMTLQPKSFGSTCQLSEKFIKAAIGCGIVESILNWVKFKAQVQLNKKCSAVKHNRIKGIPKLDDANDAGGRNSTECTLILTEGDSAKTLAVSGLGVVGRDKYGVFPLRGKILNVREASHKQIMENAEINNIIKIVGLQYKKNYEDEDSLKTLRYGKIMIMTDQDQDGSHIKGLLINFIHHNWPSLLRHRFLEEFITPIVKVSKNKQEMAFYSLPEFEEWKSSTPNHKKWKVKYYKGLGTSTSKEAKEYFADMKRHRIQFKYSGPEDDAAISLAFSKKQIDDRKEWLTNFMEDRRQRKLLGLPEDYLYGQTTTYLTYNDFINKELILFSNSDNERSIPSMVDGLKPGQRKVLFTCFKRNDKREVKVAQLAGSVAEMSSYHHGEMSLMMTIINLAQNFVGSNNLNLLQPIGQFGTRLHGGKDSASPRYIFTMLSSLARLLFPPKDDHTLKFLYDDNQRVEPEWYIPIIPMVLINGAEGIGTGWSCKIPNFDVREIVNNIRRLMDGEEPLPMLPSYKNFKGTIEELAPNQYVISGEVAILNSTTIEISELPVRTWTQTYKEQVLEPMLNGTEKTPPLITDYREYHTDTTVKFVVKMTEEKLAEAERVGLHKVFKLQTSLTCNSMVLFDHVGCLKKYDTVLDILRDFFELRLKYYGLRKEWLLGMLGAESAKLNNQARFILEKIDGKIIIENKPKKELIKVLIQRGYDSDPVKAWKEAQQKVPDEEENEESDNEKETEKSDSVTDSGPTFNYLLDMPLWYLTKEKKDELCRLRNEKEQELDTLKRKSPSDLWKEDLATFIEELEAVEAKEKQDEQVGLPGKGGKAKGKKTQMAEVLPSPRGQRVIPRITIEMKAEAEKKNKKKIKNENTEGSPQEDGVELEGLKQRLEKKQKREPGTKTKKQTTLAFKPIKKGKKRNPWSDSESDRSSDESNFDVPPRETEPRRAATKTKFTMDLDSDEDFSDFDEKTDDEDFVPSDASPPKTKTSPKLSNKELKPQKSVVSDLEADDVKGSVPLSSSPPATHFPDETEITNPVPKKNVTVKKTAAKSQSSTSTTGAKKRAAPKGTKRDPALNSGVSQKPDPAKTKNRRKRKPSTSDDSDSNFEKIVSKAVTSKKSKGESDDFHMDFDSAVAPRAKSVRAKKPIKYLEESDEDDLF
Nature of the assay: Topoisomerase II (alpha) decatenation assay. It counts as biochemical. As to conditions: activity remaining at 100 μM compound; read-out: hTopoll (% activity remaining at 100 μM). The protocol:
as §1, §2, §3, §4
Topoisomerase II (Alpha) Decatenation Assay
Each reaction was stopped by the addition of 30 μl chloroform/iso-amyl alcohol (26:1) and 30 μl Stop Dye, before being loaded on a 1.0% TAE gel run at 90V for 2 hours.

On to `COc1ccc2nccc(CC[C@H]3OC[C@H](NCc4ccc5c(n4)NC(=O)CS5)CO3)c2c1` [AB-0021, 6-(((2-(2-(6-methoxyquinolin-4-yl)ethyl)-trans-1,3-dioxan-5-yl)amino)methyl)-2H-pyrido[3,2-b][1,4]thiazin-3(4H)-one], for which the MIC against S. aureus ATCC 29213 and in the assay with USA 300 strain of MRSA was 0.5 µg/mL (≈ 1.07 µM) throughout. The values for the IC50 in assay [1] and in assay [2] were 0.59 µM and more than 100 µM, respectively. Further, the remaining activity at 100 µM on human topo II came out at 91.1%.
On to `COc1ccc2nccc(CC[C@H]3OC[C@H](NCc4ccc(Cl)cc4)CO3)c2c1` [AB-0052, N-(4-chlorobenzyl)-2-(2-(6-methoxyquinolin-4-yl)ethyl)-trans-1,3-dioxan-5-amine], for which the MIC in the assay with S. aureus ATCC 29213 came out at 1 µg/mL (≈ 2.42 µM); in the assay with USA 300 strain of MRSA, 4 µg/mL (≈ 9.69 µM). Further, the IC50 in assay [1] is 1.16 µM; in assay [2], more than 100 µM. For the same compound, on human topo II, the remaining activity at 100 µM is 97.8%.
The corresponding values for `COc1ccc2ncc(F)c(CC[C@H]3OC[C@H](NCc4cc5c(cn4)OCCO5)CO3)c2n1` [AB-0061, N-((2,3-dihydro-[1,4]dioxino[2,3-c]pyridin-7-yl)methyl)-2-(2-(3-fluoro-6-methoxy-1,5-naphthyridin-4-yl)ethyl)-trans-1,3-dioxan-5-amine] are 0.125 µg/mL (≈ 0.274 µM), 0.25 µg/mL (≈ 0.548 µM), 0.42 µM, 61 µM and 69.6%.
With `COc1ccc2nccc(CC[C@H]3OC[C@H](NCc4ccc5c(c4)NC(=O)CO5)CO3)c2c1` [AB-0057, 6-(((2-(2-(6-methoxyquinolin-4-yl)ethyl)-trans-1,3-dioxan-5-yl)amino)methyl)-2H-benzo[b][1,4]oxazin-3(4H)-one], in the assay with S. aureus ATCC 29213, the “MIC 29213” value turned out to be 2 µg/mL (≈ 4.45 µM). For the same compound, the minimum inhibitory concentration (MIC) with S. aureus ATCC 29213 and with USA 300 strain of MRSA was 1 µg/mL (≈ 2.22 µM) in each case. Also, the half-maximal inhibitory concentration (IC50) in assay [1] was 0.74 µM; in assay [2], more than 100 µM. Moreover, the remaining activity at 100 µM at human topo II was found to be 93%.
For `COc1ccc2nccc(CC[C@H]3OC[C@H](NCc4cc5c(cn4)OCCO5)CO3)c2c1` [AB-0013, N-((2,3-dihydro-[1,4]dioxino[2,3-c]pyridin-7-yl)methyl)-2-(2-(6-methoxyquinolin-4-yl)ethyl)-trans-1,3-dioxan-5-amine], the “MIC 29213” value with S. aureus ATCC 29213 came to 2 µg/mL (≈ 4.57 µM). In addition, the MIC in the assay on S. aureus ATCC 29213 was determined as 1 µg/mL (≈ 2.29 µM); with USA 300 strain of MRSA, 2 µg/mL (≈ 4.57 µM). The IC50 in assay [1] worked out at 0.36 µM; in assay [2] it was 50 µM. The remaining activity at 100 µM at human topo II worked out at 95.1%.
`COc1ccc2ncc(F)c(CC[C@H]3OC[C@H](NCc4ccc(F)c(F)c4)CO3)c2n1` [AB-0062, N-(3,4-difluorobenzyl)-2-(2-(3-fluoro-6-methoxy-1,5-naphthyridin-4-yl)ethyl)-trans-1,3-dioxan-5-amine]: the MIC in the assay on S. aureus ATCC 29213 was found to be 2 µg/mL (≈ 4.61 µM); in the assay with USA 300 strain of MRSA it was 4 µg/mL (≈ 9.23 µM). In addition, the IC50 in assay [1] was 4.43 µM; in assay [2], more than 100 µM. For the same compound, the remaining activity at 100 µM on human topo II amounted to 90.7%.
Turning to `COc1ccc2ncc(F)c(CC[C@H]3OC[C@H](NCc4cc5c(cn4)OCCC5)CO3)c2n1` [AB-0018], the MIC in the assay with S. aureus ATCC 29213 was not above 0.25 µg/mL; with USA 300 strain of MRSA it was 0.25 µg/mL (≈ 0.55 µM). The IC50 in assay [1] is 0.16 µM; in assay [2], 5.33 µM. Further, the remaining activity at 100 µM on human topo II amounted to 79.8%.

(Values after patent US11352349B2, “Type II topoisomerase inhibitors and methods of making and using thereof” (Ohio State Innovation Foundation, priority 2017, dated 2022).)
